Where only a bound is given, the exact number is not on record here.

Chain of Tie-2 (Q02763 23-1124): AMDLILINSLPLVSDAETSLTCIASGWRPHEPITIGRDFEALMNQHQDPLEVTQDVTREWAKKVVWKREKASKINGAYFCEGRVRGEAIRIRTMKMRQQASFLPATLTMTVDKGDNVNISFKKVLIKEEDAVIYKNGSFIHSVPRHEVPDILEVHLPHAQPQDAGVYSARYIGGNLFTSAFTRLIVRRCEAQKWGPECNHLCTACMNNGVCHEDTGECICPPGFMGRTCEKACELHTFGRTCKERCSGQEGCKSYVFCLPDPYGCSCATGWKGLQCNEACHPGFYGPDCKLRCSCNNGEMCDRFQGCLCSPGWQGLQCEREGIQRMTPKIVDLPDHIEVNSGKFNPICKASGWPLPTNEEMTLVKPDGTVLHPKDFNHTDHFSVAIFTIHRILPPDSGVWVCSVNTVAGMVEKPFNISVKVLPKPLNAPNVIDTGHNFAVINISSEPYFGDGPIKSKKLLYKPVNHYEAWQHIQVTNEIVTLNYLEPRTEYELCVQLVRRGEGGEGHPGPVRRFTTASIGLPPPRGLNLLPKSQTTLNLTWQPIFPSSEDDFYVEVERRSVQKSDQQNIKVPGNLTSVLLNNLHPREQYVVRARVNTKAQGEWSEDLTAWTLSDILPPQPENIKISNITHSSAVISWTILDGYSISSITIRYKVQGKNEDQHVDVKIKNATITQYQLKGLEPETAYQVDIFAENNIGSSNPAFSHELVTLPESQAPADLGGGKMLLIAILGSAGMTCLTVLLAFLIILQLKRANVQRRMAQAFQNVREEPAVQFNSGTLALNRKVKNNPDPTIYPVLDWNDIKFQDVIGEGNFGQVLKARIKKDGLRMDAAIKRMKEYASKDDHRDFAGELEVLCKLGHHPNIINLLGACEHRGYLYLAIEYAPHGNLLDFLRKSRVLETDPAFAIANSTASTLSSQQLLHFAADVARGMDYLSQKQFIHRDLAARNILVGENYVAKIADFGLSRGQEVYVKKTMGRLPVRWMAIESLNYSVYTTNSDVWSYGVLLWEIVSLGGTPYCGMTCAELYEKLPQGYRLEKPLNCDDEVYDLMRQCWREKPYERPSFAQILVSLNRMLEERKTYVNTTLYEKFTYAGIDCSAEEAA

The experiment has as its target Tie-2 (Homo sapiens, UniProt Q02763). The experiment can be described thus: Tie-2 tyrosine kinase activity: kinase-dependent ATP consumption (pEY substrate, luciferase/luciferin chemiluminescence) or 33P-ATP incorporation into substrate. Type of experiment: biochemical. Conditions: Tie-2 (human enzyme) inhibition, Table 2, class symbols A-D. As to the method: One measure of inhibition is Ki. […] The Ki for a compound is determined from the IC50 based on three assumptions. First, only one compound molecule binds to the enzyme and there is no cooperativity. […] Third, the enzymatic rate of the enzyme-inhibitor complex is zero. The rate (i.e., compound concentration) data are fitted to the equation:
[formula] where V is the observed rate, Vmax, is the rate of the free enzyme, I0 is the inhibitor concentration, E0 is the enzyme concentration, and Kd is the dissociation constant of the enzyme-inhibitor complex.
Tyrosine kinase activity is determined by 1) measurement of kinase-dependent ATP consumption by in the presence of a generic substrate such as polyglutamine, tyrosine (pEY), by luciferase/luciferin-mediated chemiluminescence or; 2) incorporation of radioactive phosphate derived from ^33P-ATP into a generic substrate which has been absorbed onto the well surface of polystyrene microtiter plates. Phosphorylated substrate products are quantified by scintillation spectrometry.
Inhibition is indicated as IC50 with following key: A=IC50 less than 50 nM, B=IC50 greater than 50 nM, but less than or equal to 1000 nM, C=IC50 greater than 1000 nM, but less than 10,000 nM, and D=IC50 10,000 nM or greater. The abbreviation for human enzyme, Tie-2, is defined as tyrosine kinase with immunoglobulin and EGF repeats.
As for `O=C(Cc1cccc2ccccc12)N(CCn1nc(-c2ccncc2)nc1-c1ccc(O)c(Cl)c1)C1CCCC1` [Entry 1, N-{2-[5-(3-chloro-4-hydroxyphenyl)-3-pyridin-4-yl-1H-1,2,4-triazol-1-yl]ethyl}-N-cyclopentyl-2-naphthalen-1-ylacetamide], the IC50 was less than 0.05 µM.

Consider `CCOC(=O)Cn1nc(-c2ccncc2)nc1-c1ccc(OC)c(Cl)c1` [Entry 2, ethyl {5-[3-chloro-4-(methyloxy)phenyl]-3-pyridin-4-yl-1H-1,2,4-triazol-1-yl}acetate], for which the IC50 is not below 10 µM.

In the case of `COc1ccc(-c2nc(-c3ccncc3)nn2CC(=O)NC2CCCC2)cc1Cl` [Entry 3, 2-{5-[3-chloro-4-(methyloxy)phenyl]-3-pyridin-4-yl-1H-1,2,4-triazol-1-yl}-N-cyclopentylacetamide], the IC50 was not below 10 µM.

In turn, `CCOC(=O)Cn1nc(-c2ccc(OC)c(Cl)c2)nc1-c1ccncc1` [Entry 4, ethyl {3-[3-chloro-4-(methyloxy)phenyl]-5-pyridin-4-yl-1H-1,2,4-triazol-1-yl}acetate] displayed a 50% inhibitory concentration (IC50) not below 10 µM.

Turning to `COc1ccc(-c2nc(-c3ccncc3)n(CC(=O)NC3CCCC3)n2)cc1Cl` [Entry 5, 2-{3-[3-chloro-4-(methyloxy)phenyl]-5-pyridin-4-yl-1H-1,2,4-triazol-1-yl}-N-cyclopentylacetamide], the IC50 is not below 10 µM.

`COC(=O)CCn1nc(-c2ccncc2)nc1-c1ccc(OC)c(Cl)c1` [Entry 6, methyl 3-{5-[3-chloro-4-(methyloxy)phenyl]-3-pyridin-4-yl-1H-1,2,4-triazol-1-yl}propanoate] showed an IC50 not below 10 µM.

For `COC(=O)CCn1nc(-c2ccc(OC)c(Cl)c2)nc1-c1ccncc1` [Entry 7, methyl 3-{3-[3-chloro-4-(methyloxy)phenyl]-5-pyridin-4-yl-1H-1,2,4-triazol-1-yl}propanoate], the IC50 is not below 10 µM.

For the compound `COc1ccc(-c2nc(-c3ccncc3)nn2CCCN(C(=O)Cc2cccc3ccccc23)C2CCCC2)cc1Cl` [Entry 8, N-(3-{5-[3-chloro-4-(methyloxy)phenyl]-3-pyridin-4-yl-1H-1,2,4-triazol-1-yl}propyl)-N-cyclopentyl-2-naphthalen-1-ylacetamide], the IC50 is not below 10 µM.

Take `COc1ccc(-c2nc(-c3ccncc3)n(CCCN(C(=O)Cc3cccc4ccccc34)C3CCCC3)n2)cc1Cl` [Entry 9, N-(3-{3-[3-chloro-4-(methyloxy)phenyl]-5-pyridin-4-yl-1H-1,2,4-triazol-1-yl}propyl)-N-cyclopentyl-2-naphthalen-1-ylacetamide]: the half-maximal inhibitory concentration (IC50) was not below 10 µM.

`COc1ccc(-c2nc(-c3ccncc3)nn2CCN(C(=O)Cc2cccc3ccccc23)C2CCCC2)cc1Cl` [Entry 10, N-(2-{5-[3-chloro-4-(methyloxy)phenyl]-3-pyridin-4-yl-1H-1,2,4-triazol-1-yl}ethyl)-N-cyclopentyl-2-naphthalen-1-ylacetamide] returned an IC50 of less than 0.05 µM.

Compound `O=C(Cc1cccc2ccccc12)N(CCn1nc(-c2ccc(O)c(Cl)c2)nc1-c1ccncc1)C1CCCC1` [Entry 11, N-{2-[3-(3-chloro-4-hydroxyphenyl)-5-pyridin-4-yl-1H-1,2,4-triazol-1-yl]ethyl}-N-cyclopentyl-2-naphthalen-1-ylacetamide] displayed an IC50 of 0.05 to 1 µM.

Regarding `COc1ccc(-c2nc(-c3cccnc3)n(CC(=O)NC3CCCC3)n2)cc1Cl` [Entry 12, 2-{3-[3-chloro-4-(methyloxy)phenyl]-5-pyridin-3-yl-1H-1,2,4-triazol-1-yl}-N-cyclopentylacetamide], the IC50 is not below 10 µM.

As for `COc1ccc(-c2nc(-c3cccnc3)nn2CCN(C(=O)Cc2cccc3ccccc23)C2CCCC2)cc1Cl` [Entry 13, N-(2-{5-[3-chloro-4-(methyloxy)phenyl]-3-pyridin-3-yl-1H-1,2,4-triazol-1-yl}ethyl)-N-cyclopentyl-2-naphthalen-1-ylacetamide], the IC50 is not below 10 µM.

`CCOC(=O)Cn1nc(-c2ccncc2)nc1-c1ccc([N+](=O)[O-])cc1` [Entry 14, ethyl [5-(4-nitrophenyl)-3-pyridin-4-yl-1H-1,2,4-triazol-1-yl]acetate] came in with an IC50 not below 10 µM.

`CCOC(=O)Cn1nc(-c2ccncc2)nc1-c1cc(Cl)cc(Cl)c1` [Entry 15, ethyl [5-(3,5-dichlorophenyl)-3-pyridin-4-yl-1H-1,2,4-triazol-1-yl]acetate] returned an IC50 not below 10 µM.

The compound `CCOC(=O)Cn1nc(-c2cc(Cl)cc(Cl)c2)nc1-c1ccncc1` [Entry 16, ethyl [3-(3,5-dichlorophenyl)-5-pyridin-4-yl-1H-1,2,4-triazol-1-yl]acetate] showed an IC50 not below 10 µM.

Regarding `O=C(Cc1cccc2ccccc12)N(CCn1nc(-c2ccncc2)nc1-c1ccco1)C1CCCC1` [Entry 17, N-cyclopentyl-N-[2-(5-furan-2-yl-3-pyridin-4-yl-1H-1,2,4-triazol-1-yl)ethyl]-2-naphthalen-1-ylacetamide], the IC50 is less than 0.05 µM.

In the case of `O=C(Cc1cccc2ccccc12)N(CCn1nc(-c2ccco2)nc1-c1ccncc1)C1CCCC1` [Entry 18, N-cyclopentyl-N-[2-(3-furan-2-yl-5-pyridin-4-yl-1H-1,2,4-triazol-1-yl)ethyl]-2-naphthalen-1-ylacetamide], the IC50 lay within 0.05 to 1 µM.

As for `O=C(Cc1cccc2ccccc12)N(CCn1nc(-c2cccs2)nc1-c1ccncc1)C1CCCC1` [Entry 19, N-cyclopentyl-2-naphthalen-1-yl-N-{2-[5-pyridin-4-yl-3-(2-thienyl)-1H-1,2,4-triazol-1-yl]ethyl}acetamide], the IC50 is 0.05 to 1 µM.

`COc1ccc(-c2nc(-c3ccncc3)nn2CCN(C(=O)c2cccc3ccccc23)C2CCCC2)cc1Cl` [Entry 20, N-(2-{5-[3-chloro-4-(methyloxy)phenyl]-3-pyridin-4-yl-1H-1,2,4-triazol-1-yl}ethyl)-N-cyclopentylnaphthalene-1-carboxamide] had an IC50 of 1 to 10 µM.

The compound `COc1ccc(-c2nc(-c3ccncc3)nn2CCN(C(=O)c2ccc3ccccc3c2)C2CCCC2)cc1Cl` [Entry 21, N-(2-{5-[3-chloro-4-(methyloxy)phenyl]-3-pyridin-4-yl-1H-1,2,4-triazol-1-yl}ethyl)-N-cyclopentylnaphthalene-2-carboxamide] had an IC50 not below 10 µM.

`COc1cccc(-c2nc(-c3ccncc3)nn2CCN(C(=O)Cc2cccc3ccccc23)C2CCCC2)c1` [Entry 22, N-cyclopentyl-N-(2-{5-[3-(methyloxy)phenyl]-3-pyridin-4-yl-1H-1,2,4-triazol-1-yl}ethyl)-2-naphthalen-1-ylacetamide] returned an IC50 of less than 0.05 µM.

Compound `COc1cccc(-c2nc(-c3ccncc3)n(CCN(C(=O)Cc3cccc4ccccc34)C3CCCC3)n2)c1` [Entry 23, N-cyclopentyl-N-(2-{3-[3-(methyloxy)phenyl]-5-pyridin-4-yl-1H-1,2,4-triazol-1-yl}ethyl)-2-naphthalen-1-ylacetamide] gave an IC50 of 0.05 to 1 µM.

Compound `COc1ccc(-c2nc(-c3ccncc3)nn2CCCCN(C(=O)Cc2cccc3ccccc23)C2CCCC2)cc1Cl` [Entry 24, N-(4-{5-[3-chloro-4-(methyloxy)phenyl]-3-pyridin-4-yl-1H-1,2,4-triazol-1-yl}butyl)-N-cyclopentyl-2-naphthalen-1-ylacetamide] gave an IC50 of 1 to 10 µM.

Turning to `COc1ccc(-c2nc(-c3ccncc3)n(CCCCN(C(=O)Cc3cccc4ccccc34)C3CCCC3)n2)cc1Cl` [Entry 25, N-(4-{3-[3-chloro-4-(methyloxy)phenyl]-5-pyridin-4-yl-1H-1,2,4-triazol-1-yl}butyl)-N-cyclopentyl-2-naphthalen-1-ylacetamide], the IC50 was not below 10 µM.

Turning to `COc1ccc(-c2nc(-c3ccncc3)nn2CCN(C(=O)c2ccccc2)C2CCCC2)cc1Cl` [Entry 26, N-(2-{5-[3-chloro-4-(methyloxy)phenyl]-3-pyridin-4-yl-1H-1,2,4-triazol-1-yl}ethyl)-N-cyclopentylbenzamide], the IC50 was not below 10 µM.

`COc1ccc(-c2nc(-c3ccncc3)n(CCN(C(=O)c3ccccc3)C3CCCC3)n2)cc1Cl` [Entry 27, N-(2-{3-[3-chloro-4-(methyloxy)phenyl]-5-pyridin-4-yl-1H-1,2,4-triazol-1-yl}ethyl)-N-cyclopentylbenzamide] displayed an IC50 not below 10 µM.

Turning to `COc1ccc(-c2nc(-c3ccncc3)nn2CCN(C(=O)c2ccnc3ccccc23)C2CCCC2)cc1Cl` [Entry 28, N-(2-{5-[3-chloro-4-(methyloxy)phenyl]-3-pyridin-4-yl-1H-1,2,4-triazol-1-yl}ethyl)-N-cyclopentylquinoline-4-carboxamide], the IC50 is not below 10 µM.

`COc1ccc(-c2nc(-c3ccncc3)nn2CCN(C(=O)Nc2cccc3ccccc23)C2CCCC2)cc1Cl` [Entry 29, N-(2-{5-[3-chloro-4-(methyloxy)phenyl]-3-pyridin-4-yl-1H-1,2,4-triazol-1-yl}ethyl)-N-cyclopentyl-N′-naphthalen-1-ylurea] had a 50% inhibitory concentration (IC50) of less than 0.05 µM.

`COc1ccc(-c2nc(-c3ccncc3)nn2CCN(C(=O)Nc2ccccc2)C2CCCC2)cc1Cl` [Entry 30, N-(2-{5-[3-chloro-4-(methyloxy)phenyl]-3-pyridin-4-yl-1H-1,2,4-triazol-1-yl}ethyl)-N-cyclopentyl-N′-phenylurea]: the IC50 was not below 10 µM.

`COc1ccc(-c2nc(-c3ccncc3)nn2CCN(C(=O)Cc2ccccc2)C2CCCC2)cc1Cl` [Entry 31, N-(2-{5-[3-chloro-4-(methyloxy)phenyl]-3-pyridin-4-yl-1H-1,2,4-triazol-1-yl}ethyl)-N-cyclopentyl-2-phenylacetamide] came in with an IC50 of 1 to 10 µM.

The IC50 is the point on the concentration scale where inhibition reaches its midpoint. Lower therefore signals greater potency.

The values above are taken from patent publication US8178570B2, “Tie-2 modulators and methods of use” (Exelixis, Inc., priority 2003, dated 2012).
